Experimental findings from PMC6877352, “Modifying the Siderophore Triacetylfusarinine C for Molecular Imaging of Fungal Infection” (Molecular imaging and biology, 2019) are described below.

Assay [1] has as its system A. fumigatus wildtype (ATCC46645). Briefly: In vitro uptake assay in A. fumigatus. As to conditions: iron-starvation condition, 45 min, normalized to [^68Ga]TAFC uptake from the same experiment, n = 3. Type of assay: cell-based, Aspergillus fumigatus. The procedure:
For in vitro uptake studies, A. fumigatus wildtype (ATCC46645) was used. Fungal strain was cultured at 37 °C in Aspergillus minimal medium (AMM) containing 1 % (m/v) glucose as carbon source, 20 mM glutamine as nitrogen source, salts, and trace elements. Iron-sufficient media were prepared by adding FeSO4 to a final concentration of 30 μM. For iron-deficient conditions, supplementation of iron was omitted. Iron starvation was verified by the detection of extracellular siderophore production which is suppressed by iron supplementation.
Uptake assays were performed in either iron-deficient or iron-sufficient A. fumigatus wildtype cultures. In a 96-well MultiScreen Filter Plates HTS (1 μm glass fiber filter, Merck Millipore, Darmstadt, Germany), 180 μl of A. fumigatus suspended in iron-replete or iron-depleted medium was added. [^68Ga]siderophores (approx. 1 × 10^5 cpm, 80 nM) were incubated with either PBS pH 7.4 (total series) or blocking solution (10 μM [Fe]TAFC) (non-specific series) at RT for 45 min in quadriplicates. The incubation was interrupted by suction of the medium and the plate was washed twice with ice-cold TRIS-buffered saline (10 mM, pH 7.3). The filters were isolated and the remaining activities were measured in the gamma counter. The uptake was calculated as % uptake of total activity added; each assay was repeated three times. To normalize uptake variations between different fungal cultures, the uptake of each [^68Ga]siderophore was expressed as the ratio to [^68Ga]TAFC uptake from the same experiment. The mean values of three different assays were used to quantitatively compare the difference in uptake between the compounds.

The subject of assay [2] is A. fumigatus mutant strain ΔsidA/ΔftrA. Briefly: Siderophore utilization growth assay. Type of assay: cell-based, Aspergillus fumigatus. As to conditions: 37 °C; for degree of utilization / growth support by [Fe]siderophore: 0.1-100 μM [Fe]siderophore in AMM; for concentration of [Fe]siderophore at which growth was supported: 48 h incubation. From the text: For siderophore utilization growth assays, A. fumigatus mutant strain ΔsidA/ΔftrA [7], which can grow only in the presence of externally added iron-siderophores or at high iron concentrations, was used. The fungal strain was inoculated in iron-deficient culture as described above.
To investigate the ability or inability of A. fumigatus to take up and utilize [Fe]siderophores as iron source, a growth assay with the A. fumigatus mutant strain ΔsidA/ΔftrA was employed. In a 24-well plate, aliquots of 10^3 conidia of mutant strain were point inoculated on 1 ml of AMM containing 0.1, 1, 10, 50, or 100 μM of [Fe]siderophore and incubated at 37 °C for 48 h. For the control, fungi were grown in iron-limited AMM without adding [Fe]siderophore.

As to `CC(=O)NC1CCCN(O)C(=O)C=C(C)CCOC(=O)C(NC(=O)c2ccccc2)CCCN(O)C(=O)C=C(C)CCOC(=O)C(NC(C)=O)CCCN(O)C(=O)C=C(C)CCOC1=O` (stereo not drawn) (68Ga complex, metal not drawn) [DABzFC], the “uptake ratio to [^68Ga]TAFC” value in assay [1] is 0.53. On to `CC(=O)NC1CCCN(O)C(=O)C=C(C)CCOC(=O)C(NC(=O)CN)CCCN(O)C(=O)C=C(C)CCOC(=O)C(NC(C)=O)CCCN(O)C(=O)C=C(C)CCOC1=O` (stereo not drawn) (68Ga complex, metal not drawn) [DAFC(gly)], for which the “uptake ratio to [^68Ga]TAFC” value in assay [1] was 0.89; in assay [1] (listed as [^68Ga]DAFC(gly)), “around 1”. Take `CC(=O)NC1CCCN(O)C(=O)C=C(C)CCOC(=O)C(NC(=O)CCC(=O)O)CCCN(O)C(=O)C=C(C)CCOC(=O)C(NC(C)=O)CCCN(O)C(=O)C=C(C)CCOC1=O` (stereo not drawn) (68Ga complex, metal not drawn) [DAFC(suc)]: the “uptake ratio to [^68Ga]TAFC” value in assay [1] is on record as 0.33. Consider `CC(=O)NC1CCCN(O)C(=O)C=C(C)CCOC(=O)C(NC(C)=O)CCCN(O)C(=O)C=C(C)CCOC(=O)C(N)CCCN(O)C(=O)C=C(C)CCOC1=O` (stereo not drawn) (68Ga complex, metal not drawn) [DAFC], for which the “uptake ratio to [^68Ga]TAFC” value in assay [1] is given as 0.56. In the case of `CCC(=O)NC1CCCN(O)C(=O)C=C(C)CCOC(=O)C(NC(C)=O)CCCN(O)C(=O)C=C(C)CCOC(=O)C(NC(C)=O)CCCN(O)C(=O)C=C(C)CCOC1=O` (stereo not drawn) (68Ga complex, metal not drawn) [DAPFC], the “uptake ratio to [^68Ga]TAFC” value is 0.99 in assay [1] and “around 1” in assay [1] (listed as [^68Ga]DAPFC). Turning to `CC1=CC(=O)N(O)CCCC(NC(=O)CN)C(=O)OCCC(C)=CC(=O)N(O)CCCC(NC(=O)CN)C(=O)OCCC(C)=CC(=O)N(O)CCCC(NC(=O)CN)C(=O)OCC1` (stereo not drawn) (68Ga complex, metal not drawn) [FSC(gly)3], the results for the “uptake ratio to [^68Ga]TAFC” value in assay [1] and in assay [1] (listed as [^68Ga]FSC(gly)3) were 0.01 and “less than 0.05”, respectively.

`CC(=O)NC1CCCN(O)C(=O)C=C(C)CCOC(=O)C(NC(=O)CN)CCCN(O)C(=O)C=C(C)CCOC(=O)C(NC(=O)CN)CCCN(O)C(=O)C=C(C)CCOC1=O` (stereo not drawn) (68Ga complex, metal not drawn) [MAFC(gly)2]: the “uptake ratio to [^68Ga]TAFC” value in assay [1] was 0.03; in assay [1] (listed as [^68Ga]MAFC(gly)2), “less than 0.05”. Take `CC(=O)NC1CCCN(O)C(=O)C=C(C)CCOC(=O)C(NC(=O)CCC(=O)O)CCCN(O)C(=O)C=C(C)CCOC(=O)C(NC(=O)CCC(=O)O)CCCN(O)C(=O)C=C(C)CCOC1=O` (stereo not drawn) (68Ga complex, metal not drawn) [MAFC(suc)2]: the “uptake ratio to [^68Ga]TAFC” value is 0.04 in assay [1] and “less than 0.05” in assay [1] (listed as [^68Ga]MAFC(suc)2). Turning to `CC(=O)NC1CCCN(O)C(=O)C=C(C)CCOC(=O)C(N)CCCN(O)C(=O)C=C(C)CCOC(=O)C(N)CCCN(O)C(=O)C=C(C)CCOC1=O` (stereo not drawn) (68Ga complex, metal not drawn) [MAFC], the “uptake ratio to [^68Ga]TAFC” value in assay [1] turned out to be 0.26. For `CCCC(=O)NC1CCCN([O-])C(=O)C=C(C)CCOC(=O)C(NC(C)=O)CCCN([O-])C(=O)C=C(C)CCOC(=O)C(NC(C)=O)CCCN([O-])C(=O)C=C(C)CCOC1=O.[Fe+3]` (stereo not drawn) [[Fe]DABuFC, butanoyl[Fe]DAFC], the “degree of utilization / growth support by [Fe]siderophore” value (shortened to “degree of utilization / growth support”) in assay [2] (48 h) is recorded as “Medium degree”. For the molecule `CC(=O)NC1CCCN([O-])C(=O)C=C(C)CCOC(=O)C(NC(=O)c2ccccc2)CCCN([O-])C(=O)C=C(C)CCOC(=O)C(NC(C)=O)CCCN([O-])C(=O)C=C(C)CCOC1=O.[Fe+3]` (stereo not drawn) [[Fe]DABzFC, benzoyl[Fe]DAFC], in assay [2] (48 h), the “degree of utilization / growth support” value was “Medium degree”. Take `CC(=O)NC1CCCN([O-])C(=O)C=C(C)CCOC(=O)C(NC(=O)CN)CCCN([O-])C(=O)C=C(C)CCOC(=O)C(NC(C)=O)CCCN([O-])C(=O)C=C(C)CCOC1=O.[Fe+3]` (stereo not drawn) [[Fe]DAFC(gly), glycyl[Fe]DAFC]: the “degree of utilization / growth support” value in assay [2] (48 h) is given as “low degree”. In addition, the “concentration of [Fe]siderophore at which growth was supported” value (from here on “concentration of [Fe]siderophore”) in assay [2] was 1 µM.

In the case of `CC(=O)NC1CCCN([O-])C(=O)C=C(C)CCOC(=O)C(NC(=O)CCC(=O)O)CCCN([O-])C(=O)C=C(C)CCOC(=O)C(NC(C)=O)CCCN([O-])C(=O)C=C(C)CCOC1=O.[Fe+3]` (stereo not drawn) [[Fe]DAFC(suc), succinyl[Fe]DAFC], the “degree of utilization / growth support” value in assay [2] (48 h) is listed as “low degree”. The “concentration of [Fe]siderophore” value in assay [2] was found to be 1 µM. `CC(=O)NC1CCCN([O-])C(=O)C=C(C)CCOC(=O)C(NC(C)=O)CCCN([O-])C(=O)C=C(C)CCOC(=O)C(N)CCCN([O-])C(=O)C=C(C)CCOC1=O.[Fe+3]` (stereo not drawn) [[Fe]DAFC, diacetyl[Fe]FSC]: in assay [2], the “concentration of [Fe]siderophore” value worked out at 0.1 µM. For the molecule `CCC(=O)NC1CCCN([O-])C(=O)C=C(C)CCOC(=O)C(NC(C)=O)CCCN([O-])C(=O)C=C(C)CCOC(=O)C(NC(C)=O)CCCN([O-])C(=O)C=C(C)CCOC1=O.[Fe+3]` (stereo not drawn) [[Fe]DAPFC, propanoyl[Fe]DAFC], in assay [2] (48 h), the “degree of utilization / growth support” value was “Medium degree”. For `CC1=CC(=O)N([O-])CCCC(NC(=O)CN)C(=O)OCCC(C)=CC(=O)N([O-])CCCC(NC(=O)CN)C(=O)OCCC(C)=CC(=O)N([O-])CCCC(NC(=O)CN)C(=O)OCC1.[Fe+3]` (stereo not drawn) [[Fe]FSC(gly)3, triglycyl[Fe]FSC], the “degree of utilization / growth support” value in assay [2] (48 h) is reported as “low degree”. For the same molecule, in assay [2], the “concentration of [Fe]siderophore” value was 1 µM. Consider `CC1=CC(=O)N([O-])CCCC(NC(=O)CCC(=O)O)C(=O)OCCC(C)=CC(=O)N([O-])CCCC(NC(=O)CCC(=O)O)C(=O)OCCC(C)=CC(=O)N([O-])CCCC(NC(=O)CCC(=O)O)C(=O)OCC1.[Fe+3]` (stereo not drawn) [[Fe]FSC(suc)3, trisuccinyl[Fe]FSC], for which the “growth at 50 μM [Fe]siderophore” value in assay [2] (50 μM, 48 h) is on record as “no growth”. In assay [2] (100 μM, 48 h), the “growth at 100 μM [Fe]siderophore” value is “sporulation defect”. Further, the “degree of utilization / growth support” value in assay [2] (48 h) was “lowest level of growth”. In the case of `CC1=CC(=O)N([O-])CCCC(N)C(=O)OCCC(C)=CC(=O)N([O-])CCCC(N)C(=O)OCCC(C)=CC(=O)N([O-])CCCC(N)C(=O)OCC1.[Fe+3]` (stereo not drawn) [[Fe]FSC, [Fe]fusarinine C, reference compound], the “concentration of [Fe]siderophore” value in assay [2] was determined as 0.1 µM. As to `CC(=O)NC1CCCN([O-])C(=O)C=C(C)CCOC(=O)C(NC(=O)CN)CCCN([O-])C(=O)C=C(C)CCOC(=O)C(NC(=O)CN)CCCN([O-])C(=O)C=C(C)CCOC1=O.[Fe+3]` (stereo not drawn) [[Fe]MAFC(gly)2, diglycyl[Fe]MAFC], the “degree of utilization / growth support” value in assay [2] (48 h) is “low degree”. Besides, in assay [2], the “concentration of [Fe]siderophore” value was 1 µM. In the case of `CC(=O)NC1CCCN([O-])C(=O)C=C(C)CCOC(=O)C(NC(=O)CCC(=O)O)CCCN([O-])C(=O)C=C(C)CCOC(=O)C(NC(=O)CCC(=O)O)CCCN([O-])C(=O)C=C(C)CCOC1=O.[Fe+3]` (stereo not drawn) [[Fe]MAFC(suc)2, disuccinyl[Fe]MAFC], the “degree of utilization / growth support” value in assay [2] (48 h) is given as “low degree”. Also, the “concentration of [Fe]siderophore” value in assay [2] was found to be 1 µM.

`CC(=O)NC1CCCN([O-])C(=O)C=C(C)CCOC(=O)C(N)CCCN([O-])C(=O)C=C(C)CCOC(=O)C(N)CCCN([O-])C(=O)C=C(C)CCOC1=O.[Fe+3]` (stereo not drawn) [[Fe]MAFC, acetyl[Fe]FSC]: the “concentration of [Fe]siderophore” value in assay [2] is 0.1 µM. For `CC(=O)N[C@H]1CCCN(O)C(=[OH+])/C=C(/C)CCOC(=O)[C@@H](NC(C)=O)CCCN(O)C(=[OH+])/C=C(/C)CCOC(=O)[C@@H](NC(C)=O)CCCN(O)C(=[OH+])/C=C(/C)CCOC1=O.[Fe]` [[Fe]TAFC, triacetyl[Fe]FSC, reference compound], the “degree of utilization / growth support” value in assay [2] (48 h) is given as “Medium degree”.

Regarding `CCC(=O)NC1CCCN([O-])C(=O)C=C(C)CCOC(=O)C(NC(=O)CC)CCCN([O-])C(=O)C=C(C)CCOC(=O)C(NC(=O)CC)CCCN([O-])C(=O)C=C(C)CCOC1=O.[Fe+3]` (stereo not drawn) [[Fe]TPFC, tripropanoyl[Fe]FSC], in assay [2] (48 h), the “degree of utilization / growth support” value is listed as “Medium degree”. tributanoyl[Fe]FSC [[Fe]TBuFC]: the “degree of utilization / growth support” value in assay [2] (48 h) is listed as “Medium degree”.
